SMILES strings stand for the structures. Bounds are passed on as bounds.

We go through 18 compounds from ChEMBL document CHEMBL4017451, “Discovery of a series of 1,3,4-oxadiazole-2(3H)-thione derivatives containing piperazine skeleton as potential FAK inhibitors” (Bioorg Med Chem, 2017).

One assay has as its system SW 1116. The experiment in a line: Antiproliferative activity against human SW1116 cells after 48 hrs by MTT assay. To be noted: SW 1116, 48 h.
The next assay concerns HepG2. The experiment in a line: cells. The conditions noted are these: Homo sapiens, HepG2, 48 h.
In the next assay the test system is HeLa. Put plainly: cells. The conditions noted are these: Homo sapiens, 48 h.
For the next assay, the system named is BGC-823. Put plainly: cells. To be noted: Homo sapiens, BGC-823, 48 h.

Description for BGC-823: Antiproliferative activity against human BGC823 cells after 48 hrs by MTT assay

By IC50 is commonly meant the point on the concentration scale where inhibition reaches its midpoint. High values mean weaker potency, low ones greater potency. Consider `S=c1oc(-c2ccc3c(c2)OCCO3)nn1CN1CCN(c2cccc(Cl)c2)CC1`, for which the IC50 with SW 1116 is more than 50 µM; in the assay with HepG2, more than 50 µM; with HeLa it was 47.2 µM; in the assay with BGC-823 it was more than 50 µM.

`Cc1ccc(N2CCN(Cn3nc(-c4ccc5c(c4)OCCO5)oc3=S)CC2)c(C)c1`: the IC50 in the assay on SW 1116 was more than 50 µM; in the assay with HepG2, 28.4 µM; in the assay with HeLa, more than 50 µM; with BGC-823 it was 28.3 µM.

On to `FC(F)(F)c1cccc(N2CCN(Cn3nc(-c4ccc5c(c4)OCCO5)oc3=S)CC2)c1`, for which the IC50 in the assay with SW 1116 is 47.1 µM; with HepG2 it was 5.78 µM; with HeLa it was more than 50 µM; with BGC-823, more than 50 µM.

As for `S=c1oc(-c2ccc3c(c2)OCCO3)nn1CN1CCN(C(c2ccccc2)c2ccccc2)CC1`, the IC50 was 21.6 µM with SW 1116, 9.12 µM with HepG2, more than 50 µM in the assay with HeLa and more than 50 µM with BGC-823.

On to `S=c1oc(-c2ccc3c(c2)OCCO3)nn1CN1CCN(c2ccccn2)CC1`, for which the IC50 stood at 9.49 µM in the assay with SW 1116, 11.3 µM with HepG2, 25.1 µM in the assay with HeLa and 25.9 µM in the assay with BGC-823.

Regarding `S=c1oc(-c2ccc3c(c2)OCCO3)nn1CN1CCN(c2ccc(Cl)cc2)CC1`, the IC50 with SW 1116, with HepG2, in the assay on HeLa and in the assay on BGC-823 was more than 50 µM in each case.

With `COc1cccc(N2CCN(Cn3nc(-c4ccc5c(c4)OCCO5)oc3=S)CC2)c1`, the concentration for half-maximal inhibition (IC50) is more than 50 µM in the assay on SW 1116, 21.4 µM in the assay on HepG2, 18 µM with HeLa and more than 50 µM in the assay on BGC-823.

As for `Fc1ccccc1N1CCN(Cn2nc(-c3ccc4c(c3)OCCO4)oc2=S)CC1`, the concentration for half-maximal inhibition (IC50) in the assay on SW 1116 was 37.8 µM; with HepG2 it was more than 50 µM; in the assay on HeLa, 37.3 µM; in the assay on BGC-823 it was more than 50 µM.

For `S=c1oc(-c2ccc3c(c2)OCCO3)nn1CN1CCN(Cc2ccccc2)CC1`, the IC50 with SW 1116 was more than 50 µM; in the assay with HepG2, 18 µM; with HeLa it was 27.1 µM; with BGC-823 it was 28.7 µM.

Regarding `S=c1oc(-c2ccc3c(c2)OCCO3)nn1CN1CCN(c2ccccc2)CC1`, the IC50 in the assay on SW 1116, with HepG2, in the assay on HeLa and in the assay on BGC-823 was more than 50 µM throughout.

With `S=c1oc(-c2ccc3c(c2)OCCO3)nn1CN1CCN(c2cccc(Cl)c2Cl)CC1`, the IC50 was 37.1 µM with SW 1116, more than 50 µM in the assay with HepG2, more than 50 µM with HeLa and 22.6 µM in the assay with BGC-823.

With `COc1ccc(N2CCN(Cn3nc(-c4ccc5c(c4)OCCO5)oc3=S)CC2)cc1`, the IC50 with SW 1116 is 24.2 µM; with HepG2, more than 50 µM; in the assay on HeLa, more than 50 µM; with BGC-823, 18.9 µM.

Consider `O=[N+]([O-])c1ccc(N2CCN(Cn3nc(-c4ccc5c(c4)OCCO5)oc3=S)CC2)cc1`, for which the IC50 with SW 1116 is more than 50 µM; in the assay with HepG2 it was 29.5 µM; in the assay with HeLa, 31.7 µM; in the assay on BGC-823, more than 50 µM.

As for `S=c1oc(-c2ccc3c(c2)OCCO3)nn1CN1CCN(c2ccc(Cl)c(Cl)c2)CC1`, the IC50 was 33.4 µM in the assay on SW 1116, 23.8 µM in the assay with HepG2, more than 50 µM in the assay with HeLa and more than 50 µM in the assay with BGC-823.

For `COc1ccccc1N1CCN(Cn2nc(-c3ccc4c(c3)OCCO4)oc2=S)CC1`, the IC50 in the assay on SW 1116 is 16.9 µM; in the assay on HepG2, 15.5 µM; in the assay on HeLa it was more than 50 µM; with BGC-823, 19.5 µM.

Regarding `S=c1oc(-c2ccc3c(c2)OCCO3)nn1CN1CCN(c2ccccc2Cl)CC1`, the IC50 was more than 50 µM in the assay on SW 1116, 11.4 µM in the assay on HepG2, 37.4 µM in the assay with HeLa and more than 50 µM in the assay with BGC-823.

Turning to `Fc1ccc(N2CCN(Cn3nc(-c4ccc5c(c4)OCCO5)oc3=S)CC2)cc1`, the IC50 in the assay with SW 1116, with HepG2, with HeLa and with BGC-823 was more than 50 µM throughout.

Regarding `O=c1[nH]cc(F)c(=O)[nH]1` [FLUOROURACIL], the IC50 worked out at 18.5 µM in the assay with SW 1116, 13.3 µM in the assay on HepG2, 9.02 µM in the assay with HeLa and 17.4 µM in the assay on BGC-823.
